Data: patent US20040242591A1, “Oxazolidinone derivatives as pontential antimicrobials” (priority 2001, published 2004)

Columns and labels:
Strep. pne. ATCC 6303 = test: MIC by agar incorporation method, S. pneum 6303; assay type: cell-based, Streptococcus pneumoniae; conditions: Mueller Hinton agar, 10^4 CFU/spot, 18 hours
Excerpt: 5) Strep. pne. ATCC 6303—Streptococcus pneumoniae ATCC 6303

Strep.pyog. ATCC 19615 = test: MIC by agar incorporation method, S.pyogenes 19615; assay type: cell-based, Streptococcus pyogenes; parameters: unit not given here; conditions: Mueller Hinton agar, 10^4 CFU/spot, 18 hours
Excerpt: 6) Strep.pyog. ATCC 19615—Streptococcus pyogenes

VRE 6A = test: MIC by agar incorporation method, VRE 6A; assay type: cell-based, Enterococcus faecium; parameters: unit not given here; conditions: Mueller Hinton agar, 10^4 CFU/spot, 18 hours
Excerpt: 4) Ent. faecium […]—Enterococcus faecium 6A Van®, Cipro®

MRSA 562 = test: MIC by agar incorporation method, MRSA 562; assay type: cell-based, Methicillin Resistant Staphylococcus aureus; parameters: unit not given here; conditions: Mueller Hinton agar, 10^4 CFU/spot, 24 hours
MRSA 15187 = test: MIC by agar incorporation method, MRSA 15187; assay type: cell-based, Methicillin Resistant Staphylococcus aureus; parameters: unit not given here; conditions: Mueller Hinton agar, 10^4 CFU/spot, 24 hours
Excerpt: 2) MRSA 15187—Methicillin Resistant Staphylococcus aureus

S.aureus ATCC 25923 = test: MIC by agar incorporation method, S.aureus 25923; assay type: cell-based, Staphylococus aureus; parameters: unit not given here; conditions: Mueller Hinton agar, 10^4 CFU/spot, 18 hours
MRSA 33 = test: MIC by agar incorporation method, MRSA 33; assay type: cell-based, Methicillin Resistant Staphylococcus aureus; parameters: unit not given here; conditions: Mueller Hinton agar, 10^4 CFU/spot, 24 hours
S. pneum AB 34 = test: MIC by agar incorporation method, S. pneum AB 34; assay type: cell-based, Streptococcus pneumoniae; parameters: unit not given here; conditions: Mueller Hinton agar, 10^4 CFU/spot, 18 hours
Ent. faecalis ATCC 29212 = test: MIC by agar incorporation method, E.faecalis 29212; assay type: cell-based, Enterococcus faecalis; parameters: unit not given here; conditions: Mueller Hinton agar, 10^4 CFU/spot, 18 hours
Excerpt: 3) Ent. faecalis ATCC 29212—Enterococcus faecalis ATCC 29212

Row | SMILES | In Vitro (MIC) S. pneum 6303 (Strep. pne. ATCC 6303) [µg/mL] | In Vitro (MIC) S.pyogenes 19615 (Strep.pyog. ATCC 19615) | In Vitro (MIC) VRE 6A (VRE 6A) | In Vitro (MIC) MRSA 562 (MRSA 562) | In Vitro (MIC) MRSA 15187 (MRSA 15187) | In Vitro (MIC) S.aureus 25923 (S.aureus ATCC 25923) | In Vitro (MIC) MRSA 33 (MRSA 33) | In Vitro (MIC) S. pneum AB 34 (S. pneum AB 34) | In Vitro (MIC) E.faecalis 29212 (Ent. faecalis ATCC 29212)
1 | O=C(CCl)NC[C@H]1CN(c2ccc(N3CCN(Cc4ccc([N+](=O)[O-])s4)CC3)c(F)c2)C(=O)O1 [Compound No. 47, (S)-N-[[3-[3-Fluoro-4[N-1[4-[2-thiophenyl-(5-nitro)methyl}]piperazinyl]-phenyl]-2-oxo-5-oxazolidinyl]methyl]monochloroacetamide] | 2 | 1 | 4 | 4 | 4 | 4 | 4 | 4 | 4
2 | O=C(CCl)NC[C@H]1CN(c2ccc(N3CCN(Cc4cc(Br)c([N+](=O)[O-])s4)CC3)c(F)c2)C(=O)O1 [Compound No. 48] | 16 | 16 | 2 | 4 | 4 | 4 | 4 | 16 | 2
3 | CC(Cl)C(=O)NC[C@H]1CN(c2ccc(N3CCN(Cc4cc(Br)c([N+](=O)[O-])s4)CC3)c(F)c2)C(=O)O1 (stereo partly drawn) [Compound No. 51] | 16 | 16 | 8 | 8 | 8 | 8 | 8 | 16 | 8
4 | CC(=O)NC[C@H]1CN(c2ccc(N3CCCN(Cc4ccc([N+](=O)[O-])o4)CC3)c(F)c2)C(=O)O1 [Compound No. 52, (S)-N-[[3-[3-Fluoro-4-[N-1-[4-{2-furyl(5-nitro)methyl}]homopiperazinyl]phenyl]-2-oxo-5-oxazolidinyl]methyl]acetamide] | 1 | 1 | 2 | 1 | 2 | 2 | 2 | 4 | 2
5 | CC(=O)NC[C@H]1CN(c2ccc(N3CCCN(C(=O)c4ccc([N+](=O)[O-])s4)CC3)c(F)c2)C(=O)O1 [Compound No. 54, (S)-N-[[3-[3-Fluoro-4-[N-1-[4-{2-thiophenoyl-(5-nitro)}]homopiperazinyl]phenyl]-2-oxo-5-oxazolidinyl]methyl]acetamide] | 8 | 0.25 | 0.5 | 0.5 | 0.5 | 1 | 0.5 | 8 | 1
6 | CC(=O)NC[C@H]1CN(c2ccc(N3CCCN(C(=O)c4ccc([N+](=O)[O-])o4)CC3)c(F)c2)C(=O)O1 [Compound No. 55, (S)-N-[[3-[3-Fluoro-4-[N-1-[4-{2-furoyl-(5-nitro)}]homopiperazinyl]phenyl]-2-oxo-5-oxazolidinyl]methyl]acetamide] | 8 | 4 | 0.25 | 1 | 0.5 | 2 | 2 | 8 | 0.25
7 | CC(=O)NC[C@H]1CN(c2ccc(N3CCN(Cc4ccc([N+](=O)[O-])o4)CC3C)c(F)c2)C(=O)O1 (stereo partly drawn) [Compound No. 58, (S)-N-[[3-[3-Fluoro-4-[N-1-[2-methyl-4-{2-furyl(5-nitro)methyl}]-piperazinyl]phenyl]-2-oxo-5-oxazolidinyl]methyl]acetamide] | 8 | 4 | 4 | 2 | 4 | 4 | 4 | 16 | 4
8 | CC(=O)NC[C@H]1CN(c2ccc(N3CCN(C(=O)c4ccc([N+](=O)[O-])o4)CC3C)c(F)c2)C(=O)O1 (stereo partly drawn) [Compound No. 59, (S)-N-[[3-[3-Fluoro-4-[N-1-[2-methyl-4-{2furoyl-(5-nitro)}]-piperazinyl]phenyl]-2-oxo-5-oxazolidinyl]methyl]acetamide] | 8 | 8 | 2 | 1 | 1 | 2 | 1 | 8 | 1
9 | CC(=O)NC[C@H]1CN(c2ccc(N3CCN(C(=O)c4ccc([N+](=O)[O-])s4)CC3C)c(F)c2)C(=O)O1 (stereo partly drawn) [Compound No. 60, (S)-N-[[3-[3-Fluoro-4-[N-1-[2-methyl-4-{2-thiophenoyl-(5-nitro)}]-piperazinyl]phenyl]-2-oxo-5-oxazolidinyl]methyl]acetamide] | 4 | 0.5 | 1 | <0.125 | <0.125 | 0.25 | <0.125 | 4 | 1
10 | CC(=O)NC[C@H]1CN(c2ccc(N3C(C)CN(C(=O)c4ccco4)CC3C)c(F)c2)C(=O)O1 (stereo partly drawn) [Compound No. 61, (S)-N-[[3-[3-Fluoro-4-[N-1-[2,6-dimethyl-4-{2-furoyl-}]-piperazinyl]phenyl]-2-oxo-5-oxazolidinyl]methyl]acetamide] | 2 | 2 | 4 | 4 | 4 | 4 | 4 | 2 | 4
